# Measurements as given in US20260373497A1, “MOLECULAR MACHINES STIMULATE INTERCELLULAR CALCIUM WAVES AND CAUSE MUSCLE CONTRACTION” (William Marsh Rice University, priority 2022, published 2026).
# “Also recorded” adds a separate entry of the source.
# Key:
# HEK293 cells = test: Pharmacological blocking of MM 1-induced calcium responses; format: cell-based; details: MM 1 + light in calcium-free PBS
# Description: FIGS. 14A-14J—Mechanistic study of MM-induced ICW. (a) Schematic of possible mechanisms by which calcium can enter the cytoplasm. Prepared with Biorender.com. (b) Confocal microscope images of HEK293 cells treated with MM 1, MitoTracker Green, ER Tracker Red, and CellMask Deep Red. Scale bars are both 20 μm and apply to the images in the same row. (c-h) Calcium waves elicited by MM 1-treated cells (c) in calcium-free PBS, (d) in RR (1 μM), (e) in Gd^3+ (50 μM), (f) after treatment of cells with Th (1 μM), (g) in Ry (100 μM), (h) in XeC (25 μM), (i) in U-73 (10 μM), (j) after pre-treatment of cells with Cyto D (2 μM). The solid line represents the calcium profiles averaged from six independent cells. The shaded region represents the standard error of the mean (n=6). Stimuli were presented after 30 s of imaging in each case, and the time of stimulus presentation is indicated by the vertical cyan line. […] All stimuli were delivered with a pulse width of 250 ms to a circular area of diameter 5 μm at a power ranging from 3.2×10^2 W cm^−2 to 5.1×10^2 W cm^−2. For all plots, the cyan line indicates the time of stimulus presentation. Controls and experimental groups were imaged and stimulated on the same day using the same conditions and with the same batch of cells. Error bars in the bar graphs represent the standard deviation of the mean of n=3 experiments (at least 6 stimulated cells per experiment). Statistical analyses were performed using a one-tailed Welch's t-test. * P-value<0.05, ** P-value<0.01, *** P-value<0.001, **** P-value<0.0001.
# Imaging was conducted in imaging extracellular buffer (iECB; 119 mM NaCl, 5 mM KCl, 10 mM HEPES, 2 mM CaCl2, 1 mM MgCl2 (pH 7.2); 320 mOsm). Imaging in calcium-free medium was conducted in phosphate-buffered saline. Cells were prepared for imaging by seeding a 35 mm Ibidi imaging dish with ~50,000 cells in 1 mL of DMEM, and grown at 37 °C, 5% CO2 for 2 days. Prior to imaging, cells were incubated with dyes and/or molecules resuspended in complete growth medium at the appropriate concentration (MM 1 (8 μM), MM 2 (8 μM), MM 3 (24 μM), MM 4 (8 μM), Fluo-4 (2 μM)). MM and Fluo-4 were loaded into cells for 45 min. Cells treated with thapsigargin were exposed for 30 min after MM and Fluo-4 loading. Cells treated with organelle-targeting dyes were exposed for 5 min after MM loading. Ruthenium red and Gd^3+ were included in the imaging medium during stimulation and were associated with cells for 10 min prior to imaging. At the end of incubation, this medium was replaced with the iECB. Unless otherwise specified, all experiments were replicated in triplicate.
# Pharmacological Experiments: In pharmacological blocking experiments, cells were loaded with MM and Fluo-4 as previously described. Typical imaging experiments in previously described extracellular buffer were then conducted as a positive control. Then, the imaging buffer was replaced, and the cells were treated as required for each experiment. After a brief recovery period, the cells were imaged again, and six different cells were stimulated. Experiments in calcium-free imaging buffer used phosphate buffered saline. Thapsigargin (Th: 1 μM) and Cytochalasin D (Cyto D; 2 μM) were incubated with cells in complete growth medium for 1 h (Th) or 2 h (Cyto D) before imaging. Ruthenium red (RR; 1 μM), gadolinium (Gd; 50 μM), ryanodine (Ry; 100 μM), xestospongin C (XeC; […]), and U-73122 (U-73; 10 μM) were administered directly into the imaging medium. Cells were incubated in the medium for ~5 min prior to imaging. Traces presented are representative results across at least six cells from single experiments, while bar graphs represent the average results across at least three distinct experiments.
# [1] = test system: primary rat cardiomyocytes; test: Spiking, beating and contraction of primary cardiomyocytes after MM stimulation; format: cell-based
# C2C12 myoblasts = test: ROS generation (CellROX green) in C2C12 myoblasts; format: cell-based, mouse; details: MM 1 + light
# Description: Additionally, to further confirm that the cellular calcium release is not the result of a photodynamic effect caused by reactive oxygen species (ROS) generation, ROS generation was measured from each MM using the ROS sensitive dye CellROX green. CellROX fluoresces when oxidized by ROS in living cells and can be used to measure general oxidative stress in cells due to ROS generation. […] To confirm that the ROS generated by MM 1 was not causing intracellular calcium release, cells were treated with a combination of thiourea (TU, 50 mM) and [COMPOUND LEFT OUT] (SA, 1.25 mM) to scavenge the ROS that were produced. […] If ROS generation by MM 1 was the cause of calcium release, then less calcium release would be expected with treatment of ROS scavengers.
smiles,measurement,setting,value
CC1Cc2ccc3ccccc3c2C1=C1c2ccccc2Sc2cc(NCCN(C)C)ccc21 (stereo not shown) [MM 1],Calcium response amplitude in absence of extracellular calcium,HEK293 cells,showed no differences in response amplitude compared to a positive control in calcium-containing medium
same,Contraction / beating of cardiomyocytes,"[1]; 400 nm, 250 ms, 5.1×10^2 W cm^−2",local contraction in the stimulated cell; also recorded: periodic beating in the stimulated cell and surrounding cell
same,Firing rate of cardiomyocytes,"[1]; MM 1 + light in presence of U-73 10 μM, P<0.0001",~ 0.8 spikes min^−1 cell^−1
same,Spiking activity of cardiomyocytes,"[1]; MM 1 + light, absence of extracellular calcium",did not exhibit any spiking activity
same,Firing rate of cardiomyocytes,"[1]; MM 1 + light, calcium-containing medium",5.1 spikes min^−1 cell^−1
same,ROS generation,C2C12 myoblasts; CellROX green,generated more ROS than the DMSO negative control but less ROS than positive controls
same,ROS generation with scavenger combination,C2C12 myoblasts; with thiourea-containing scavenger combination (1× and 0.2×),decrease in ROS generation
